# Measured values taken from publication PMC5140066, “Electrophysiological Characteristics of Human iPSC-Derived Cardiomyocytes for the Assessment of Drug-Induced Proarrhythmic Potential” (PLoS ONE, 2016).
# Key:
# [1] = system: dogs with subacute myocardial infarction; design: method as in PMID 11005588; details: cited from earlier work
# [2] = system: human induced pluripotent stem cell-derived cardiomyocytes (hiPSC-CMs); assay: Field potential recording of hiPSC-CM sheets on multi-electrode array (MEA); format: cell-based
# Method: The cells were thawed and suspended in iCell Cardiomyocytes Plating Medium (Cellular Dynamics International), then plated (approximately 2 × 10^6 cells/well) in 6-well tissue-culture plates coated with 0.1% gelatin. After two days of incubation at 37°C under an atmosphere of 5% CO2, the plating medium was replaced with iCell Cardiomyocytes Maintenance Medium (Cellular Dynamics International); this medium was used as the culture medium throughout the experiments and was replaced every 1 to 3 days. The cells were cultured for 7 to 14 days in a 5% CO2 incubator at 37°C and then re-plated onto MEA probes (MED-P515A or MED-PG515A; Alpha Med Scientific, Osaka, Japan).
# The recording areas of the MEA probes were coated with fibronectin (Becton Dickinson, Franklin Lakes, NJ, USA; Invitrogen, Carlsbad, CA, USA; Corning, Corning, NY, USA). Fibronectin was dissolved in distilled water or Dulbecco's phosphate-buffered saline (PBS) [−] to give 50 μg/mL, the recording areas were covered with 2 μL fibronectin solution, and then the MEA probes were incubated at 37°C for at least 1 h. […] After discarding the fibronectin solution from the MEA probes without complete drying, the cell suspension at a density of 3.0 × 10^4 cells in a 2 μL droplet was re-plated onto the fibronectin-coated area of each MEA probe and incubated for 1 to 3 h in a 5% CO2 incubator at 37°C. Each well of the MEA probes was then filled with maintenance medium at a volume of 1 mL/well. The medium was replaced every 1 to 3 days thereafter, and the cells were cultured for 5 to 14 days to obtain high density cardiomyocyte-sheets with spontaneous and synchronous electrical activities.
# Prior to recording FPs, the cardiomyocyte-sheets were equilibrated for at least 30 min in a 5% CO2 incubator at 37°C in fresh culture medium. The MEA probes were then transferred to a FP measurement apparatus (MED64 system; Alpha Med Scientific, Osaka, Japan) and covered with a lid through which humidified gas containing 5% CO2 was provided. […] Analogue FP signals from the spontaneously beating cardiomyocyte-sheets were acquired through a 0.1-Hz high-pass filter and a 5-kHz low-pass filter, and digitized at 20 kHz using the MED64 system. […] Compound stock solutions were prepared using DMSO at 1000-fold the target concentrations of the test compounds. The stock solutions were diluted with the maintenance medium to obtain the appropriate compound concentrations, then 1/10th to 1/50th the volume of the medium in the wells was exchanged with an equal volume of the compound-containing medium. The compounds were applied in a cumulative manner to the wells. The concentration of DMSO was 0.5–0.6% at the highest concentration of the test compounds. […] FPD (ms) and ISI (ms) were analyzed using Mobius QT software designed by WitWerx (Santa Cruz, CA, USA) (Fig 1b).
# Baseline FP waveforms that met the following criteria were used for analysis. […] In the FP signals, EAD and TA were defined as slow negative spikes and a sharp deflection with an amplitude ≥ ± 100 μV, respectively (Fig 1c). EAD, TA or both usually appear during or after the second positive deflection. ISI, FPD and FPDcF were not calculated for concentrations in which EAD or TA were observed.
# As previously mentioned, total 96 data equally from 4 facilities each were used for the analysis (24 data per facility). […] The root mean squared prediction error (RMSE) was used to show the level of accuracy of the equation predicted for the observed data (Fig 2). With categorical data analysis of FPD, inter-facilities differences were investigated with Kruskal-Wallis test (Fig 4).
# [3] = system: guinea pig ventricular myocytes; design: method as in PMID 9709405; details: independent of the underlying pacing rate; cited from earlier work
# [4] = system: human ventricular myocytes; design: method as in PMID 9709405; details: independent of the underlying pacing rate; cited from earlier work
compound,measurement,setting,value
CCS(=O)(=O)N(C)[C@H]1c2cc(C#N)ccc2OC(C)(C)[C@@H]1O (racemic) [Chromanol 293B],Effect on effective refractory periods,[1],prolonged effective refractory periods in a rate-dependent manner
same,EADs and/or TAs,[2]; at concentrations up to 30 μM,not observed
same,"Slope factor of FPD-ISI regression, % change",[2]; chromanol 293B 1 μM,0.9162
same,"Slope factor of FPD-ISI regression, % change",[2]; chromanol 293B 30 μM,0.9066
same,"Slope factor of FPD-ISI regression, absolute FPD (ms)",[2]; chromanol 293B 30 μM (sham 0.1674),0.4182
same,Effect on FPD,[2]; cumulative application,prolonged FPD in a concentration-dependent manner
same,Use (rate) dependence of FPD prolongation,[2]; from FPD-ISI plots,prolonged FPD in a rate-independent manner
same,Prolongation of APD90,[3],about 30%
same,Prolongation of APD90,[4],about 30%
